Reference: ChEMBL document CHEMBL1201862, “PubChem BioAssay data set” (2004)
Active and inactive are the calls of the source.

How the values were obtained:
[1] = target: T1, Small ubiquitin-related modifier 1 (Homo sapiens, UniProt P63165); assay: SUMO1 protein interaction blockers, potency – biochemical, fluorescence polarization, uHTS hits, dose response (AID 624382); assay type: functional; settings: read-out: IC50_Mean
[2] = target: T1, Small ubiquitin-related modifier 1; assay: SUMO1 protein-protein binding blockers, potency – biochemical, FRET, dose response (AID 624383); assay type: functional; settings: read-out: IC50_Mean
[3] = system: BJ; assay: BJ-TERT fibroblast viability loss – cell-based, RAS-independent, luminescence, dose response (AID 1933); assay type: functional; settings: Homo sapiens
[4] = system: BJ; assay: cells; assay type: functional, cell-based; settings: Homo sapiens
[5] = system: BJ; assay: BJ-TERT-LT-ST fibroblast viability loss – cell-based, RAS-independent, luminescence, dose response (AID 1935); assay type: functional; settings: Homo sapiens;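 further: BJ fibroblasts immortalized with TERT plus LT and ST oncogenes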
[6] = DRD fibroblast viability loss – cell-based, non-viral oncogenic, luminescence, dose response (AID 1934); assay type: functional; settings: Homo sapiens
[7] = Luminescence Cell-Based Dose Retest to Confirm Inhibitors of Cancer Stem Cells. [Related pubchem assays (depositor defined):AID2717, AID2721]; assay type: functional; settings: Homo sapiens
[8] = target: Nonstructural protein 1 (Influenza A virus, UniProt Q194T2); assay type: functional, Influenza A virus (A/California/07/2009(H1N1))
Chain of Nonstructural protein 1 (Q194T2 whole entry): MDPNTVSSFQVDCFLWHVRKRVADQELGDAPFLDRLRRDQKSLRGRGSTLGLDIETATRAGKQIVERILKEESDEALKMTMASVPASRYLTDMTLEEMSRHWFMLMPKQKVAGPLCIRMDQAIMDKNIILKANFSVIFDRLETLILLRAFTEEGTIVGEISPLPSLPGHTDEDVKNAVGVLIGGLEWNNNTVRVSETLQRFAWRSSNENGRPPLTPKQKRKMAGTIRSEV

[9] = target: T2, Heat shock factor protein 1 (Mus musculus, UniProt P38532); assay: enhancement of HSF1-driven luciferase signal – cell-based, NIH3T3, luminescence, dose retest, confirmation (AID 435004); assay type: functional;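 further: stress induced by proteasome inhibitor MG132 added 30 min after compound; luciferase reporter driven by HSF1 response element in NIH3T3 cells; actives raise luminescence as potentiators of the MG132 stress response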
T2 sequence (P38532 whole entry): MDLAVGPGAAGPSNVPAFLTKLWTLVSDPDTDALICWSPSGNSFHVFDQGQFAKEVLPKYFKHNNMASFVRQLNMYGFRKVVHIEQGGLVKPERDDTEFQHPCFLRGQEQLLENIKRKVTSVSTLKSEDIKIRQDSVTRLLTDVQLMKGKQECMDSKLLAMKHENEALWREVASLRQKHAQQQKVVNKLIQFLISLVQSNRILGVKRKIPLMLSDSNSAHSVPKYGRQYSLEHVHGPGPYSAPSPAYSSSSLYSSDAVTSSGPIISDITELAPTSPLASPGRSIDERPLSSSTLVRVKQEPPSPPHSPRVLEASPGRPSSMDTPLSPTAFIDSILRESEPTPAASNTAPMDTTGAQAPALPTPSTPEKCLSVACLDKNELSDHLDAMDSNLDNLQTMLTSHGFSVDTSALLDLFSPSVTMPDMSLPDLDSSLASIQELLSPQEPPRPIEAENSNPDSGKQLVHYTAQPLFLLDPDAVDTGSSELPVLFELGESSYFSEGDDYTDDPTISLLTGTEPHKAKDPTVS

[10] = system: Vero; assay: viability of Vero cells under compound – cytotoxicity control for flavivirus capping enzyme inhibitors (AID 588742); assay type: functional; settings: Chlorocebus sabaeus
[11] = Trypanosoma cruzi growth suppression in host cells – NIH3T3 host cells, beta-gal luminescence, confirmation (AID 2044); assay type: functional, cell-based;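 further: intracellular parasites grown in NIH/3T3 mouse fibroblasts as host cells; luminescent beta-galactosidase reporter signal from transgenic T. cruzi replicating inside host cells; inhibitors lower the luminescence signal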
[12] = NIH3T3 cell viability loss – ATP luminescence, mouse fibroblasts, counter-screen, dose response (AID 2010); assay type: functional, cell-based;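 further: cells exposed to compound for about 90 hours before reading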
[13] = cells
[14] = system: Streptococcus sp. 'group A'; assay: Streptococcus pyogenes SK(-)GAS viability under kanamycin – luminescence, BacTiterGlo, confirmation, counter-screen for streptokinase expression inhibitor project, dose response (AID 1900); assay type: functional, organism-based
[15] = target: T3, Streptokinase A (Streptococcus pyogenes serotype M1, UniProt P10520); assay: viability-normalized secreted streptokinase activity reduction – plasminogen activation absorbance, OD405, dose response (AID 1914); assay type: functional, Streptococcus pyogenes M1 GAS;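 further: secreted streptokinase activity via plasminogen activation per viability signal from cell pellet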
T3 sequence (P10520 whole entry): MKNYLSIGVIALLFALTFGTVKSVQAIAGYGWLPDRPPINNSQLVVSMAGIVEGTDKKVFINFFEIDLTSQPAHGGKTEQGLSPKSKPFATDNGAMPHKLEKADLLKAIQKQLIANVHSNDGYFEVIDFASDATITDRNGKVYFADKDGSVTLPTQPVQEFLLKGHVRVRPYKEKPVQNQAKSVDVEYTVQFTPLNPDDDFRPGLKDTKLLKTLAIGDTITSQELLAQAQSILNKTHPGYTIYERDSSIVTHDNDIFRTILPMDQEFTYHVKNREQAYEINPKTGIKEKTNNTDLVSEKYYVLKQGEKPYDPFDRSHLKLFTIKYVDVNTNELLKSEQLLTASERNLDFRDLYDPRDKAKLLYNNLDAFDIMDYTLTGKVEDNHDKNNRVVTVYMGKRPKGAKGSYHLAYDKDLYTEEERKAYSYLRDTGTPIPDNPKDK

[16] = system: Streptococcus; assay: GAS UMAA2166 growth inhibition – luminescence, BacTiterGlo, counter-screen for streptokinase expression inhibitor project, dose response (AID 1915); assay type: functional, organism-based;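 further: potency for reduction of bacterial viability or growth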
[17] = HEK-293T viability loss after treatment – luminescence, T-cell screen hits, cytotoxicity control for TCR NF-kB inhibitor project, dose response (AID 489026); assay type: functional, cell-based;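 further: cells exposed to compound about 14 hours before the viability readout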
[18] = target: T4, Sentrin-specific protease 8 (Homo sapiens, UniProt Q96LD8); assay type: functional
T4 sequence (Q96LD8 whole entry): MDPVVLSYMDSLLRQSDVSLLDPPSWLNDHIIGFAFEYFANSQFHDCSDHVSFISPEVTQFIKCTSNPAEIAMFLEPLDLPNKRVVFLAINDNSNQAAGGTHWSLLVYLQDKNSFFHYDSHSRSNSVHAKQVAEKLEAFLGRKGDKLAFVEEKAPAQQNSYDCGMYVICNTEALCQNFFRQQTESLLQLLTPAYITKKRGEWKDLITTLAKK

[19] = target: T4, Sentrin-specific protease 8; assay type: functional; remark: listed apart in the source
[20] = target: SWI/SNF-related matrix-associated actin-dependent regulator of chromatin subfamily A member 2 (Homo sapiens, UniProt P51531); assay: Luminescence-based cell-based high throughput dose response assay to identify activators of the function of SWI/SNF related, matrix associated, actin dependent regulator of chromatin, subfamily a, member 2 (SMARCA2, BRM).; assay type: functional
Chain of SWI/SNF-related matrix-associated actin-dependent regulator of chromatin subfamily A member 2 (P51531 whole entry): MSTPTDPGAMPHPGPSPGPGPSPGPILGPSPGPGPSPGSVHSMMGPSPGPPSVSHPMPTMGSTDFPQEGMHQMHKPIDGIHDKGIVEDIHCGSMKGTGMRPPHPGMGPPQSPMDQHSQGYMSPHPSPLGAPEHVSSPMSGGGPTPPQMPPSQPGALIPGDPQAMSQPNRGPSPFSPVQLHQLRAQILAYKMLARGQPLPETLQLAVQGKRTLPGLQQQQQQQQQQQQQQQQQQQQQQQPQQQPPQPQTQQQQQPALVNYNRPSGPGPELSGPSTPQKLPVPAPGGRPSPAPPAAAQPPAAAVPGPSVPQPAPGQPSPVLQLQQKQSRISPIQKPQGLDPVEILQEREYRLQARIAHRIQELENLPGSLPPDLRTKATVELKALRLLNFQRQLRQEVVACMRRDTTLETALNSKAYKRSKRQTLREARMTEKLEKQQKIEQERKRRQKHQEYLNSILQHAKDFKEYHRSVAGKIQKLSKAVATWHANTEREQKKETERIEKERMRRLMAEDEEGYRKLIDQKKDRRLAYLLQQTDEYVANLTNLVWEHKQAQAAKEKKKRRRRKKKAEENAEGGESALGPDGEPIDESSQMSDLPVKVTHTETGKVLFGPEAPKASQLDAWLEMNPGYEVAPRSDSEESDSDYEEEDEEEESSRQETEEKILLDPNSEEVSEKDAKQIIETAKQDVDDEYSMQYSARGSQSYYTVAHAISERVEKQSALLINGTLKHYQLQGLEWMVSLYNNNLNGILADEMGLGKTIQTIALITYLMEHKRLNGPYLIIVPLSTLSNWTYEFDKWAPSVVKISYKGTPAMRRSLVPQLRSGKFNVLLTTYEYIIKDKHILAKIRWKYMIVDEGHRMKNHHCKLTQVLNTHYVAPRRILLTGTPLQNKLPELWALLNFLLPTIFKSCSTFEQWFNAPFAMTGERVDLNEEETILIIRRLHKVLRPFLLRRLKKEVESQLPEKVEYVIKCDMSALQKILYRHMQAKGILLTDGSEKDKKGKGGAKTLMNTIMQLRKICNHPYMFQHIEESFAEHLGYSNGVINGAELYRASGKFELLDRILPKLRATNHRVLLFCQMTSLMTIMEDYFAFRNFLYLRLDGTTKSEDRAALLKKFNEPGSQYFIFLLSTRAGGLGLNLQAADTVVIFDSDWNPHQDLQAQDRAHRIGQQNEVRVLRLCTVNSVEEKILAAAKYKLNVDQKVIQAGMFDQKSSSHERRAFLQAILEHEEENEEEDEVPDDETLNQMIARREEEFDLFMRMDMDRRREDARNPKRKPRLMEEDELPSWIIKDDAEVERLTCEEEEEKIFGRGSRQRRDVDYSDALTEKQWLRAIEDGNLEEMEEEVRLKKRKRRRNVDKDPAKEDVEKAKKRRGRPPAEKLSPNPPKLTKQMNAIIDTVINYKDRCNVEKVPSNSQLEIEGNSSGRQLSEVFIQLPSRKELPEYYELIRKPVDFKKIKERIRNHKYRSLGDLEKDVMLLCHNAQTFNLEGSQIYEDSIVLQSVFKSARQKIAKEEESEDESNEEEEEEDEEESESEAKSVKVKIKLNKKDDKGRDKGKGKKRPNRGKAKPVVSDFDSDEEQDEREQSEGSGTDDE

[21] = Counterscreen for activators of the function of SWI/SNF related, matrix associated, actin dependent regulator of chromatin, subfamily a, member 2 (SMARCA2, BRM): Luminescence-based cell-based high throughput dose response assay to identify non-selective compounds using the VP16 reporter assay.; assay type: functional
[22] = target: NAD-dependent protein deacylase sirtuin-5, mitochondrial (Homo sapiens, UniProt Q9NXA8); assay: sirtuin-5 deacylation blockers, concentration series – biochemical, fluorescence imaging, cherry-pick, set 5, dose response (AID 720591);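 further: desuccinylation of succinyl peptide AMC substrate read as fluorescence after trypsin release; potency of inhibitors that lower fluorescence and may act on trypsin instead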
Chain of NAD-dependent protein deacylase sirtuin-5, mitochondrial (Q9NXA8 whole entry): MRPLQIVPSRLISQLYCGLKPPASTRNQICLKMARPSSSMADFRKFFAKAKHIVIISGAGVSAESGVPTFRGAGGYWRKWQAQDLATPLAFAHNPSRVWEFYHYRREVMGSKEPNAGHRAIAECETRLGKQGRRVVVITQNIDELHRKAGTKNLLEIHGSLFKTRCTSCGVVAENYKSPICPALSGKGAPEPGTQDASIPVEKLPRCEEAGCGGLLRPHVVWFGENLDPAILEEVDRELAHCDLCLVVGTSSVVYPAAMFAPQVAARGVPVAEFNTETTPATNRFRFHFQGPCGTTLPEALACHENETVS

[23] = target: Fatty acid synthase (Homo sapiens, UniProt P49327); assay: inhibition of human FAS-TE enzyme activity – biochemical, kinetic fluorescence intensity, dose response (AID 624326); assay type: functional;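 further: rate of fluorescence rise from hydrolysis of a fluorogenic O-methyl fluorescein ester substrate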
Chain of Fatty acid synthase (P49327 whole entry): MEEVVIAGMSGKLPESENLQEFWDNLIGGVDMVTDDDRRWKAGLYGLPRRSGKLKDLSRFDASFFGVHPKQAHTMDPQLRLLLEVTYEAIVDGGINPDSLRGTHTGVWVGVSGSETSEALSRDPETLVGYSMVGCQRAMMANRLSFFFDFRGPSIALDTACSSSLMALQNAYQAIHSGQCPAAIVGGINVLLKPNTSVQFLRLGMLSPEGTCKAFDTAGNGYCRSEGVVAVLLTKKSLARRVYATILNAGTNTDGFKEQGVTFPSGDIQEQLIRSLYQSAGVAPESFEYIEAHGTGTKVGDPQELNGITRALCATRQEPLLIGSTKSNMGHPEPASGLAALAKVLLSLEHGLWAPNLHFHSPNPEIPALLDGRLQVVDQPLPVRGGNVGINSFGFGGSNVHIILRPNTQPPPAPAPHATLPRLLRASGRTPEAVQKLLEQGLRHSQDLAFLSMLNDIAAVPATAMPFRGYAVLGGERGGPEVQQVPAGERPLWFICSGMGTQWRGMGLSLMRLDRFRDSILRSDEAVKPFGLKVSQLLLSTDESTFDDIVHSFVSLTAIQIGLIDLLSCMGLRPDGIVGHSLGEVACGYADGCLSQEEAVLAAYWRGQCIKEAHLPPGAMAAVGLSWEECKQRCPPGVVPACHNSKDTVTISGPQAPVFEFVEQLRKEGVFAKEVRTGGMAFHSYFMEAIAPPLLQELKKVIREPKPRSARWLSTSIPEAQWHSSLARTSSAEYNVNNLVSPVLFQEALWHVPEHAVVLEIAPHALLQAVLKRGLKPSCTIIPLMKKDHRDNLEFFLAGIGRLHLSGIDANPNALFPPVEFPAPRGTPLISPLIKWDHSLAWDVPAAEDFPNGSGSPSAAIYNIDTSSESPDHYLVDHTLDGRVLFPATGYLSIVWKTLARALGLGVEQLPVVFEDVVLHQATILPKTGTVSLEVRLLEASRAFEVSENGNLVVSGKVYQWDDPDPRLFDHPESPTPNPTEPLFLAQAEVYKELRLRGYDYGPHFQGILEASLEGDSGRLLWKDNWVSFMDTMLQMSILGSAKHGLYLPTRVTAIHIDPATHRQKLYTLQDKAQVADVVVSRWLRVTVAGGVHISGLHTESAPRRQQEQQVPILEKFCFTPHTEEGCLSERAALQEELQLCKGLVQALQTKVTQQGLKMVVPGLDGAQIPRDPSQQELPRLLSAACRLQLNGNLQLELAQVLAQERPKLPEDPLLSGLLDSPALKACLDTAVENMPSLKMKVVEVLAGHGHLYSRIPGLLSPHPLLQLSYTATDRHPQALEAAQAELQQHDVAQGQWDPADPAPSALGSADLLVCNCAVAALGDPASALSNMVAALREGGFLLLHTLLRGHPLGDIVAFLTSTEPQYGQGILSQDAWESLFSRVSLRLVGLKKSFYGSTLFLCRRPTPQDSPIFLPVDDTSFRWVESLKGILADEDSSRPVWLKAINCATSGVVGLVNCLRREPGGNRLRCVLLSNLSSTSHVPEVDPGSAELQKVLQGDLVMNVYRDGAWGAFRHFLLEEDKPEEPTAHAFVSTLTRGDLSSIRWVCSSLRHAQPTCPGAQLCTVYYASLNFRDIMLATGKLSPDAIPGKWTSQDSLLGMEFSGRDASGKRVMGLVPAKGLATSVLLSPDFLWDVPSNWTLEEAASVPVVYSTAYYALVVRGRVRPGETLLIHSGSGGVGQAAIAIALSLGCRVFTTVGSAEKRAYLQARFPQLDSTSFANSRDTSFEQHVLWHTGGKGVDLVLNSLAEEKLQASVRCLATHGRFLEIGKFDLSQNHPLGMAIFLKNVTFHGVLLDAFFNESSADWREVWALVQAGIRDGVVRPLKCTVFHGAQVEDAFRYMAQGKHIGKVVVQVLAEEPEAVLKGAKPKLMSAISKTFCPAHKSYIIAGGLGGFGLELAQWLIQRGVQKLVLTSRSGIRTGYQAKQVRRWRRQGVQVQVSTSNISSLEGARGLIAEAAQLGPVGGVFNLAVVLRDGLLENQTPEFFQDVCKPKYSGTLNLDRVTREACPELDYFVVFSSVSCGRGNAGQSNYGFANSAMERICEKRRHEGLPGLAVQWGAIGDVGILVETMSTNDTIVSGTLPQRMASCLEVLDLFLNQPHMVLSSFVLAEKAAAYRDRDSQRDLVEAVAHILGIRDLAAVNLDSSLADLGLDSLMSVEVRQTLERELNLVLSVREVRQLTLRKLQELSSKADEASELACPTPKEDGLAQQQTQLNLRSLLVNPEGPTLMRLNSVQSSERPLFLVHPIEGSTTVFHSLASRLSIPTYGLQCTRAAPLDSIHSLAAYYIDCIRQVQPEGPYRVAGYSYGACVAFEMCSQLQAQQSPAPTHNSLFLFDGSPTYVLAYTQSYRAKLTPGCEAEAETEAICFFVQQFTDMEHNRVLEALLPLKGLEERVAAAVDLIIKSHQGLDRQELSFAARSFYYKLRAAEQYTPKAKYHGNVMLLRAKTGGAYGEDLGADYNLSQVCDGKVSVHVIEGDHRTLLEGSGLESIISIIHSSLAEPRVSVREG

[24] = target: T5, Mannose-6-phosphate isomerase (Homo sapiens, UniProt P34949); assay: MPI inhibition at elevated mannose 6-phosphate – biochemical, fluorescence intensity, high mannose 6-phosphate, primary screen (AID 1220)
T5 sequence (P34949 whole entry): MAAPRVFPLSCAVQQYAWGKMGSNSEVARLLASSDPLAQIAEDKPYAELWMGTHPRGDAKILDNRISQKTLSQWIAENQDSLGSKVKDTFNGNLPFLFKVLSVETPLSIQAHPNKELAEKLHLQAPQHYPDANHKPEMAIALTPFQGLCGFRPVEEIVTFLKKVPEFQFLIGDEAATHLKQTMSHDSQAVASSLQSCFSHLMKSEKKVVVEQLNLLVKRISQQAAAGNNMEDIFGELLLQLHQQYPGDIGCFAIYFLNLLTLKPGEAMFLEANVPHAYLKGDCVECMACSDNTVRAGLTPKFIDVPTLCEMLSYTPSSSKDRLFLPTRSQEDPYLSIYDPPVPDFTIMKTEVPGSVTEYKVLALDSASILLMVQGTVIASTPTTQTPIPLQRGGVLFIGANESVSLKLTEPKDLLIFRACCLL

[25] = Fluorescence-based cell-based high throughput dose response assay for inhibitors of the interaction of nucleotide-binding oligomerization domain containing 2 (NOD2) and the receptor-interacting serine-threonine kinase 2 (RIPK2).; assay type: functional; settings: Homo sapiens
[26] = target: Paired box protein Pax-8 (Homo sapiens, UniProt Q06710); assay: PAX8 transcriptional activity inhibition in RMG-I – RMG-I cells, luciferase, cherry-pick, dose response (AID 687027); assay type: functional, cell-based;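 further: luciferase reporter driven by Pax8 target thyroperoxidase promoter measured by SteadyGlo luminescence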
[27] = target: T6, DNA repair protein RAD52 homolog (Homo sapiens, UniProt P43351); assay type: functional, biochemical
T6 sequence (P43351 whole entry): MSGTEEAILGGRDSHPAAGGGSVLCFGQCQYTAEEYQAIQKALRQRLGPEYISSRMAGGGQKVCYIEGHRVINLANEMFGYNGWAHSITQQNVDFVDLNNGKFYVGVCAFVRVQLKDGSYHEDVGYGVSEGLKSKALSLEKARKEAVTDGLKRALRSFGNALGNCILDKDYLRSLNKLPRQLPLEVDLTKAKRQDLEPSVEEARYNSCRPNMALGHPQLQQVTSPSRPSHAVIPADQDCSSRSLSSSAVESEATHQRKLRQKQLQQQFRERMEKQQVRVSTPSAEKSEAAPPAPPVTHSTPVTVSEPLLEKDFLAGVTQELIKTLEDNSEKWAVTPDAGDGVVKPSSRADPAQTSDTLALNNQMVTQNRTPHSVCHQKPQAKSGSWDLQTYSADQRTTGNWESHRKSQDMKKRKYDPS

[28] = intracellular Trypanosoma cruzi inhibitors in host cells – cell-based, plate reader, cherry-pick samples, set 3, dose response (AID 651818); assay type: functional;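 further: compounds incubated with infected cells for about four days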

T1 sequence (P63165 whole entry): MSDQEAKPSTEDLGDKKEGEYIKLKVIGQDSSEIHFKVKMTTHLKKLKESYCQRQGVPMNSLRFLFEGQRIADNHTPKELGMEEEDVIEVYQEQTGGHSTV

## COc1ccc(C(=O)Nc2ccccc2C(=O)NC(Cc2ccc(O)cc2)C(=O)NNC(=O)c2ccc(C)cc2)cc1 (centres undefined)
[1]
  IC50: > 66.6 µM (inactive)
[2]
  IC50: 2.32 µM (active)

## CN1CCN(c2ccc(C(=O)c3ccc(Br)cc3)cc2[N+](=O)[O-])CC1
[3]
  EC50: > 150 µM (not active)
[4]
  EC50: > 150 µM (not active)
[5]
  EC50: > 150 µM (not active)
[6]
  EC50: > 150 µM (not active)

## O=C1C=CC(=O)N1c1ccc(Sc2ccc([N+](=O)[O-])cc2)cc1
[3]
  EC50: 7.87 µM (active)
[4]
  EC50: 21 µM (active)
[5]
  EC50: > 75 µM (inconclusive)
[6]
  EC50: 24.7 µM (active)

## O=C/C=C/c1c(-c2ccccc2)cc2oc3ccccc3cc1-2
[7]
  AC50: 10.4 µM (active)
[8]
  IC50: 37.1 µM (active)
[9]
  EC50: > 260 µM (inactive)
[10]
  CC50: > 40 µM (active)

## Cc1nc2c(Cl)cccc2c(O)c1CN1CCCCCC1
[11]
  EC50: < 0.1 µM (active)
[12]
  EC50: > 60 µM (not active)
[13]
  EC50: 0.046 µM (active)

## COC(=O)c1cnc(Oc2ccc(NC(=O)NC(=O)c3c(F)cccc3Cl)cc2)cc1C(F)(F)F
[14]
  EC50: 49 µM (active)
[3]
  EC50: 1.08 µM (active)
[15]
  EC50: 1.95 µM (active)
[4]
  EC50: 36.1 µM (inconclusive)
[5]
  EC50: 19.9 µM (active)
[6]
  EC50: 3.69 µM (inconclusive)
[16]
  EC50: > 150 µM (not active)
[17]
  IC50: > 80 µM (inactive)

## CC1CC(C)CN(CCOCCSc2ccccc2)C1 (centres undefined)
[11]
  EC50: < 0.1 µM (active)
[12]
  EC50: > 60 µM (inconclusive)
[13]
  EC50: 0.09 µM (active)

## NS(=O)(=O)c1ccc(CCNC(=O)COC(=O)c2ccc([N+](=O)[O-])o2)cc1
[18]
  IC50: 6.46 µM (active)
[19]
  IC50: 9.2 µM (active)

## Cc1cc(NC(=O)c2ccco2)ncc1NC(=O)Cc1ccccc1
[20]
  EC50: > 91.2 µM (inactive)
[21]
  EC50: > 91.2 µM (inactive)

## CC(=O)c1ccc(OC(=O)Cc2cccc3ccccc23)cc1
[22]
  AC50: 10.4 µM (active)

## Cc1cccc(-n2c(SCC(N)=O)nnc2-c2ccco2)c1
[22]
  AC50: > 30 µM (inactive)

## COc1ccc(NC(=O)CC2C(=O)N(C)C(=S)N2Cc2cccs2)cc1 (centres undefined)
[23]
  IC50: 15.8 µM (active)

## COc1cc(C(=O)NNC(=O)C2CCC2)cc(OC)c1OC
[22]
  AC50: 29.9 µM (active)

## Cc1cc(CNC(=O)Cc2c(F)cccc2Cl)nn1C
[22]
  AC50: > 30 µM (inactive)

## CN(C)/C=N/c1c(Br)cc(Br)c2nonc12
[24]
  IC50: > 50 µM (not active)
[18]
  IC50: 21.3 µM (active)
[19]
  IC50: 10.2 µM (active)

## CCN(CC)CCNC(=O)C(Cl)=C1C(Cl)=C(Cl)C(Cl)=C1Cl
[20]
  EC50: > 91.2 µM (inactive)
[21]
  EC50: > 91.2 µM (inactive)

## O=c1ccc2ccccc2c2ccccc12
[25]
  IC50: 6.6 µM (active)
[26]
  AC50: 6.07 µM (active)

## COc1ccc2sc3cccc(NCCN(C)C)c3c(=O)c2c1
[20]
  EC50: > 10.1 µM (inactive)
[21]
  EC50: > 91.2 µM (inactive)
[27]
  AC50: 0.683 µM (active)

## C[C@H](CO)N1C[C@H](C)[C@H](CN(C)Cc2ccc(C(=O)Nc3ccccc3N)cc2)Oc2c(NS(=O)(=O)c3ccccc3)cccc2C1=O
[28]
  AC50: 2.19 µM (active)

## C[C@H](CO)N1C[C@H](C)[C@@H](CN(C)CC2CCCCC2)Oc2c(NC(=O)Nc3ccc(C(F)(F)F)cc3)cccc2C1=O
[28]
  AC50: 3.48 µM (active)

## C[C@H](CO)N1C[C@H](C)[C@H](CN(C)Cc2ccc(-c3ccccc3)cc2)Oc2ccc(NC(=O)Nc3ccc(C(F)(F)F)cc3)cc2CC1=O
[28]
  AC50: 2.21 µM (active)

## C[C@@H]1CN([C@@H](C)CO)C(=O)Cc2cc(NC(=O)Nc3ccccc3)ccc2O[C@@H]1CN(C)Cc1ccc(Cl)c(Cl)c1
[28]
  AC50: 3.92 µM (active)

## O=C(N/N=C/c1ccc([N+](=O)[O-])o1)c1cn(-c2ccccc2)nc1-c1ccc(Cl)cc1
[11]
  EC50: < 0.1 µM (active)
[12]
  EC50: > 30 µM (not active)
[13]
  EC50: 0.028 µM (active)
